Test [1] concerns the target Cyclin-dependent kinase 1/cyclin B (Homo sapiens, UniProt P06493). Description: Inhibitory concentration was determined by measuring phosphorylation of H1 histone using active human Cell division cycle 2-cyclin B complex. The format is protein-complex assay.
Test [2] concerns the target T1, Protein kinase C (PKC) (Homo sapiens) (UniProt O94806+P41743+P17252+P05129+Q05655+P05771+Q05513+Q02156+P24723+Q15139+Q04759). Description: Inhibition of protein kinase C at 240 uM. The format is protein assay.
The target in test [3] is T2, Cyclin-dependent kinase 1/cyclin B (Homo sapiens) (UniProt P06493+P14635+Q8WWL7+O95067). Description: Inhibition of Cell division cycle 2-cyclin B at 24 uM (No inhibition). The format is protein-complex assay.
The target of test [4] is T2, Cyclin-dependent kinase 1/cyclin B (Homo sapiens). Description: Inhibition of Cell division cycle 2-cyclin B at 2.4 uM (No inhibition). Format: protein-complex assay.
Test [5] addresses T1, Protein kinase C (PKC) (Homo sapiens). Description: Inhibition of protein kinase C at 24 uM. The format is protein assay.
Test [6] deals with T3, cAMP-dependent protein kinase (PKA) (Homo sapiens) (UniProt P22694+P17612+P22612). Description: Inhibition of protein kinase A at 240 uM (No inhibition). The format is protein assay.
The target in test [7] is T3, cAMP-dependent protein kinase (PKA) (Homo sapiens). Description: Inhibition of protein kinase A at 2.4 uM (No inhibition). Format: protein assay.
Test [8] in a line: Inhibition of Calcium/calmodulin-dependent protein kinase at 2.4 uM (No inhibition).
Test [9] in a line: Inhibition of Calcium/calmodulin-dependent protein kinase at 240 uM (No inhibition).
Test [10] is described as follows: Inhibition of Calcium/calmodulin-dependent protein kinase at 24 uM (No inhibition).
Test [11] addresses T3, cAMP-dependent protein kinase (PKA) (Homo sapiens). Description: Inhibition of protein kinase A at 24 uM (No inhibition). The format is protein assay.
The target of test [12] is T2, Cyclin-dependent kinase 1/cyclin B (Homo sapiens). Description: Inhibition of Cell division cycle 2-cyclin B at 240 uM (Partial inhibition). Format: protein-complex assay.
Test [13] addresses T1, Protein kinase C (PKC) (Homo sapiens). Description: Inhibition of protein kinase C at 2.4 uM. The format is protein assay.
In test [14] the target is T2, Cyclin-dependent kinase 1/cyclin B (Homo sapiens). As to conditions: 240 uM.
The target in test [15] is T3, cAMP-dependent protein kinase (PKA) (Homo sapiens). Description: Inhibition of protein kinase A at 24 uM (partial). Format: protein assay.
A short description of test [16]: Inhibition of Calcium/calmodulin-dependent protein kinase at 240 uM (Partial).
In test [17] the target is T3, cAMP-dependent protein kinase (PKA) (Homo sapiens). Description: Inhibition of protein kinase A at 240 uM. Format: protein assay.
The target of test [18] is T2, Cyclin-dependent kinase 1/cyclin B (Homo sapiens). Description: Inhibition of Cell division cycle 2-cyclin B at 24 uM (Partial inhibition). The format is protein-complex assay.

Among the data in ChEMBL document CHEMBL1131359, “Design of new inhibitors for cdc2 kinase based on a multiple pseudosubstrate structure” (Bioorg Med Chem Lett, 1998) are IC50 and inhibition values, retold here.

The structures appear in SMILES notation. Calls of active or inactive are those of the source. The calls are words filed in the database; no cut-off is given here. Residues, ends and D or L forms follow the SMILES beside them. *: point of attachment. X3 = CN(C)CCCn1cc(C2=C(c3cn(CCOCC*)c4ccccc34)C(=O)NC2=O)c2ccccc21; X4 = O=C1NC(=O)C(c2cn(CCOCCOCCOC*)c3ccccc23)=C1c1c[nH]c2ccccc12; X1 = O=C1NC(=O)C(c2cn(CCOCCOCC*)c3ccccc23)=C1c1c[nH]c2ccccc12; X2 = O=C1NC(=O)C(c2cn(CCOCC*)c3ccccc23)=C1c1c[nH]c2ccccc12

One may read the IC50 as the point on the concentration scale where inhibition reaches its midpoint. Read a high IC50 as a need for much substance. Take `CNC(=O)[C@H](CCCCN)NC(=O)[C@H](CCCCN)NC(=O)[C@@H]1CCCN1C(=O)[C@H](CSCCOCCn1cc(C2=C(c3c[nH]c4ccccc34)C(=O)NC2=O)c2ccccc21)NC(C)=O` (Ac-C(X2)PKK-NHMe): the IC50 in test [1] came to 98 µM.

The compound `CNC(=O)[C@H](CCCCN)NC(=O)[C@H](CCCCN)NC(=O)[C@@H]1CCCN1C(=O)[C@H](CSCCOCCOCCn1cc(C2=C(c3cn(CCCN(C)C)c4ccccc34)C(=O)NC2=O)c2ccccc21)NC(C)=O` came in with a half-maximal inhibitory concentration (IC50) in test [1] of more than 1000 µM.

`CNC(=O)[C@H](CCCCN)NC(=O)[C@H](CCCCN)NC(=O)[C@@H]1CCCN1C(=O)[C@H](CO)NC(=O)[C@H](CSCOCCOCCOCCn1cc(C2=C(c3c[nH]c4ccccc34)C(=O)NC2=O)c2ccccc21)NC(C)=O` (Ac-C(X4)SPKK-NHMe) displayed an IC50 in test [1] of 570 µM.

`CNC(=O)[C@H](CCCCN)NC(=O)[C@H](CCCCN)NC(=O)[C@@H]1CCCN1C(=O)[C@H](CSCCOCCOCCOCCn1cc(C2=C(c3c[nH]c4ccccc34)C(=O)NC2=O)c2ccccc21)NC(C)=O` came in with an IC50 in test [1] of 31 µM.

Broadly, the inhibition is how much of the control response was suppressed. `CNC(=O)[C@H](CCCCN)NC(=O)[C@H](CCCCN)NC(=O)[C@@H]1CCCN1C(=O)[C@H](CSCCOCCOCCn1cc(C2=C(c3c[nH]c4ccccc34)C(=O)NC2=O)c2ccccc21)NC(C)=O` (Ac-C(X1)PKK-NHMe): the inhibition was more than 75% in [2], more than 75% in test [5], “Weak activity” in test [12] and more than 75% in test [13]. The inhibition result in [3], in [4], in test [6], in test [7], in test [8] and in test [9] was “inactive” in each case. In addition, the inhibition result in test [10] and in test [11] was “inactive” in each case. The compound further yielded an IC50 in test [1] of 4.5 µM.

Compound `O=C1NC(=O)C(c2cn(CCOCCOCCO)c3ccccc23)=C1c1c[nH]c2ccccc12` showed an IC50 in [1] of 285 µM.

As to `O=C1NC(=O)C(c2c[nH]c3ccccc23)=C1c1c[nH]c2ccccc12` [RO-316233], the inhibition in test [14] was more than 75%; in test [15], “Weak activity”; in test [16], “Weak activity”; in test [17], more than 75%; in test [18], “Weak activity”. For the same compound, the inhibition entry in test [4], in [7], in [8] and in [10] was “inactive” each time. This compound had an IC50 in [1] of 18 µM.

`CN(C)CCCn1cc(C2=C(c3cn(CCOCCOCCO)c4ccccc34)C(=O)NC2=O)c2ccccc21` had an IC50 in [1] of 35 µM.

`CNC(=O)[C@H](CCCCN)NC(=O)[C@H](CCCCN)NC(=O)[C@@H]1CCCN1C(=O)[C@H](CS)NC(C)=O` (HELM PEPTIDE1{[ac].C.P.K.K.[CN[*:1]]}$$$$V2.0) gave an IC50 in test [1] of more than 1000 µM.

With `CN(C)CCCn1cc(C2=C(c3c[nH]c4ccccc34)C(=O)NC2=O)c2ccccc21` [GF-109203], the inhibition is more than 75% in test [2]; more than 75% in test [14]; “Weak activity” in test [15]; more than 75% in [5]; more than 75% in [17]; “Weak activity” in test [18]. The same compound displayed an inhibition in test [13] of more than 75%. The inhibition result in [4], in test [7], in test [8], in [9] and in [10] was “inactive” throughout. The same compound returned an IC50 in test [1] of 19 µM.

The compound `CNC(=O)[C@H](CCCCN)NC(=O)[C@H](CCCCN)NC(=O)[C@@H]1CCCN1C(=O)[C@H](CSCCOCCn1cc(C2=C(c3cn(CCCN(C)C)c4ccccc34)C(=O)NC2=O)c2ccccc21)NC(C)=O` (Ac-C(X3)PKK-NHMe) had an IC50 in test [1] of more than 1000 µM.

As to `O=C1NC(=O)C(c2cn(CCOCCO)c3ccccc23)=C1c1c[nH]c2ccccc12`, the inhibition was more than 75% in test [2]; more than 75% in test [5]; more than 75% in test [17]; “Weak activity” in [12]; more than 75% in test [13]. Further, the inhibition entry in test [3], in test [4], in test [7], in [8], in [9] and in test [10] was “inactive” throughout. Besides, the inhibition entry in test [11] was “inactive”. Half-maximal inhibition in test [1] (IC50) required 4 µM.

Turning to `CNC(=O)[C@H](CCCCN)NC(=O)[C@H](CCCCN)NC(=O)[C@@H]1CCCN1C(=O)[C@H](CO)NC(=O)[C@H](CSCCOCCOCCn1cc(C2=C(c3c[nH]c4ccccc34)C(=O)NC2=O)c2ccccc21)NC(C)=O` (Ac-C(X1)SPKK-NHMe), in test [1], the IC50 is 220 µM.

Compound `O=C1NC(=O)C(c2cn(CCOCCOCCOCCO)c3ccccc23)=C1c1c[nH]c2ccccc12` came in with an IC50 in test [1] of 55 µM.

`CN(C)CCCn1cc(C2=C(c3cn(CCOCCO)c4ccccc34)C(=O)NC2=O)c2ccccc21` had an IC50 in [1] of 22 µM.
